Laboratory results as given in patent US20230133114A1, “COMPOSITIONS AND METHODS CONTAINING REDUCED NICOTINAMIDE RIBOSIDE FOR PREVENTION AND TREATMENT OF VIRAL AND BACTERIAL INFECTIONS” (SOCIETE DES PRODUITS NESTLE S.A., priority 2020, published 2023).
Counter-ions that a name gives are not always drawn.

Columns and labels:
[1] = Stability of NRH or NR spiked in isolated mouse plasma; type: in vitro ADME; details: for levels of spiked compound in plasma: isolated mouse plasma, 2 h of incubation
Description: (§1) Levels of NRH and other NAD-related metabolites in biological samples were obtained by using a cold liquid-liquid extraction using a mixture of methanol:water:chloroform in 5:3:5 (v/v), from which the polar phase was recovered for hydrophilic interaction ultra-high performance liquid chromatography mass spectrometry (UHPLC-MS) analysis. The UHPLC consisted of a binary pump, a cooled autosampler, and a column oven (DIONEX Ultimate 3000 UHPLC+ Focused, Thermo Scientific), connected to a triple quadrupole spectrometer (TSQ Vantage, Thermo Scientific) equipped with a heated electrospray ionisation (H-ESI) source. Of each sample, 2 µL were injected into the analytical column (2.1 mm × 150 mm, 5 µm pore size, 200 Å HILICON iHILIC®-Fusion(P)), guarded by a pre-column (2.1 mm × 20 mm, 200 Å HILICON iHILIC®-Fusion(P) Guard Kit) operating at 35° C. The mobile phase (10 mM ammonium acetate at pH 9, A, and acetonitrile, B) was pumped at 0.25 mL/min flow rate over a linear gradient of decreasing organic solvent (0.5-16 min, 90-25% B), followed by re-equilibration for a total run time of 30 min. The MS operated in positive mode at 3500 V with multiple reaction monitoring (MRM). The software Xcalibur v4.1.31.9 (Thermo Scientific) was used for instrument control, data acquisition and processing. Retention time and mass detection was confirmed by authentic standards.
(§2) NR degradation to NAM has been proposed as a limitation for its pharmacological efficacy. To evaluate whether NRH was also susceptible to degradation to NAM, we spiked NRH or NR in isolated mouse plasma. […] We also tested the stability of NRH in other matrixes. […] Finally, we also certified NRH stability in water (pH=7, at room temperature) for 48 h.

[2] = Stability in FBS supplemented media; type: in vitro ADME
Description: as §2

[3] = system: NAD+ levels; experiment: Tissue NAD+ levels after IP injection in mice; type: in vivo; details: IP 500 mg/kg, after 1 h
Description: as §1
The above results prompted us to test whether NRH could act as an effective NAD+ precursor in vivo. For this, we first intraperitoneally (IP) injected mice with either NR or NRH (500 mg/kg). […] Importantly, NRH was detectable in circulation after IP injection.

[4] = Circulating NRH, NR and NAM after IP injection in mice; type: in vivo
Description: as §1, with “standards. […]” for “standards.”

[5] = Plasma NRH, NR and NAM after oral administration in mice; type: in vivo
Description: as §1
Oral administration of NRH led to very similar results to those observed after IP administration. […] NRH was detectable in plasma 1 h after oral administration. In contrast, NR levels were undetectable at 1 h after NR administration.

[6] = Stability in water; type: physicochemical; details: pH=7, room temperature, 48 h
Description: as §2

[7] = system: NAD+ levels; experiment: Hepatic NAD+ levels after oral administration in mice; type: in vivo; details: oral administration (FIG. 2: 500 mg/kg, 1 hour)
Description: 8 week-old C57BI/6NTac mice were orally gavaged with either saline (as vehicle), NR (500 mg/kg) or NRH (500 mg/kg). After 1 hour, liver, skeletal muscle and kidney NAD^+ levels were evaluated. All results are expressed as mean +/-SEM of n=5 mice per group. * indicates statistical difference at p<0.05 vs. vs. saline-treated mice. # indicates statistical difference at p<0.05 vs. NR treated mice.
(§3) Levels of NRH and other NAD-related metabolites in biological samples were obtained by using a cold liquid-liquid extraction using a mixture of methanol:water:chloroform in 5:3:5 (v/v), from which the polar phase was recovered for hydrophilic interaction ultra-high performance liquid chromatography mass spectrometry (UHPLC-MS) analysis. The UHPLC consisted of a binary pump, a cooled autosampler, and a column oven (DIONEX Ultimate 3000 UHPLC+ Focused, Thermo Scientific), connected to a triple quadrupole spectrometer (TSQ Vantage, Thermo Scientific) equipped with a heated electrospray ionisation (H-ESI) source. Of each sample, 2 µL were injected into the analytical column (2.1 mm × 150 mm, 5 µm pore size, 200 Å HILICON iHILIC®-Fusion(P)), guarded by a pre-column (2.1 mm × 20 mm, 200 Å HILICON iHILIC®-Fusion(P) Guard Kit) operating at 35° C. […]

[8] = NRH levels in liver, kidney and muscle after oral gavage; type: in vivo; details: mice, oral gavage 250 mg/kg, 2 hours
Description: (§4) 8 week-old C57BI/6NTac mice were orally gavaged with either saline (as vehicle), and NRH (250 mg/kg). After 2 hours, liver, skeletal muscle and kidney NRH levels were evaluated. All results are expressed as mean +/-SEM of n=4 mice per group, as areas under the signal by LC-MS analysis, corrected by total protein amount of tissue.
as §1

[9] = NRH levels in lung after oral gavage; type: in vivo; details: mice, oral gavage of stable isotope-labelled NRH 250 mg/kg, 2 hours
Description: as §4, with “and an stable isotope-labelled” for “and”, “hours,” for “hours, liver, skeletal muscle and kidney”, “levels in the lung” for “levels”, “+/-SE” for “+/-SEM”
as §3, with “source.” for “source. Of each sample, 2 µL were injected into the analytical column (2.1 mm × 150 mm, 5 µm pore size, 200 Å HILICON iHILIC®-Fusion(P)), guarded by a pre-column (2.1 mm × 20 mm, 200 Å HILICON iHILIC®-Fusion(P) Guard Kit) operating at 35° C.”
8 week-old C57BI/6NTac mice were orally gavaged with either saline (as vehicle), and an stable isotope-labelled NRH (250 mg/kg). After 2 hours, NRH levels in the lung were evaluated. All results are expressed as mean +/-SE of n=4 mice per group, as areas under the signal by LC-MS analysis, corrected by total protein amount of tissue (FIG. 4).

[10] = system: Salmonella enterica serovar Typhimurium; experiment: Anti-bacterial response of monocyte-derived macrophages against Salmonella (CFU counts); type: cell-based; details: 0.01 mM for 42 h prior to infection, MOI 10, 1 h; gentamicin 2 h
Description: (§5) Monocyte-derived macrophages were treated with 0.01 mM NRH for 42 h prior to infection with Salmonella enterica serovar Typhimurium for 1 h using a multiplicity of infection of 10. Following infection, macrophages were treated with gentamicin for 2 h before cell lysis. Values show absolute colony forming unit (CFU) counts with each dot representing one donor and each line representing paired samples. Graphs show pooled data of 2 independent experiments with 2-3 donors/experiment.
as §5, with “donors/experiment. (FIG. 5).” for “donors/experiment.”

[11] = system: RAW 264.7 macrophages; experiment: Intracellular NAD+ in cultured RAW 264.7 macrophages; type: cell-based; details: 1 hour
Description: RAW 264.7 macrophages were treated with dihydronicotinamide riboside (NRH) at the concentrations indicated. […] Control (0 mM) group. RAW 264.7 macrophages were treated with dihydronicotinamide riboside (NRH) at the concentrations indicated.

[12] = system: Mouse bone marrow derived macrophages; experiment: Intracellular NAD+ in cultured bone marrow derived macrophages; type: cell-based; details: 1 or 2 hours
Description: Mouse bone marrow derived macrophages were treated with dihydronicotinamide riboside (NRH) at the concentrations indicated, using PBS as control. […] Control group. Mouse bone marrow derived macrophages were treated with dihydronicotinamide riboside (NRH) at the concentrations indicated, using PBS as control.

[13] = system: Splenocytes; experiment: Intracellular NAD+ in splenocytes; type: cell-based; details: splenocytes from 1 year old mice, 2 hours
Description: Then, 2 hours later, intracellular NAD+ levels were measured. * indicates p<0.05 vs. Control (0 mM) group. […] Then, 2 hours later, intracellular NAD+ levels were measured as described above.

For `NC(=O)c1ccc[n+]([C@@H]2O[C@H](CO)[C@@H](O)[C@H]2O)c1` [NR, 1-b-D-ribofuranosyl-3-pyridinecarboxamide salt, reference compound], the “levels of spiked compound in plasma” value [1] was “decayed”, the “degradation to NAM in FBS supplemented media” value [2] was “occurs” and the “NAD+ levels in kidney” value [3] was “increased”. The “NAD+ levels in liver” value [3] was “increased”, the “NAD+ levels in muscle” value [3] was “increased” and the “NAM levels in circulation” value ([4]; IP 500 mg/kg) was “highly increased”. For the same compound, the “circulating NAM relative to that after NRH treatment” value ([5]; C57BL/6NTac, mouse, in vivo, po, 1 h) was ~ 4 fold and the “circulating NAM” value ([5]; mouse, in vivo, po) was “large increases”.

In the case of `NC(=O)C1=CN([C@@H]2O[C@H](CO)[C@@H](O)[C@H]2O)C=CC1` [NRH, dihydronicotinamide riboside], the “levels of spiked compound in plasma” value [1] is reported as “remained stable”, the “NR production on incubation in isolated plasma” value ([1]; isolated plasma) is reported as “did not lead to NR production” and the “degradation to NAM in FBS supplemented media” value [2] is reported as “did not degrade to NAM”. For the same compound, the stability in water [6] was “stability”, the “NAD+ levels in kidney” value [3] was “increased” and the “NAD+ levels in liver” value [3] was “increased”. The “NAD+ levels in muscle” value [3] was “increased”, the NR in circulation ([4]; after IP treatment, compared with NR injection) was “much higher levels than those detected after NR injection itself” and the “effect on hepatic NAD+ levels” value [7] was “more potent effect on hepatic NAD+ levels than NR”. For the same compound, the NRH in plasma ([5]; mice, 1 h after oral administration) was “detectable”, the “NRH concentration in plasma” value ([5]; mice, after oral gavage) was 11.16 ± 1.74 µM and the NRH in kidney [8] was “found intact, in high levels”. The NRH in liver [8] was “found intact, in high levels”, the NRH in muscle [8] was “found intact, in high levels” and the NRH in lung [9] was “efficient biodistribution in the lung”. For the same compound, the “anti-bacterial macrophage response against salmonella” value [10] was “able to augment anti-bacterial macrophage response”, the “intracellular NAD+ levels” value [11] was “increases NAD+” and the “intracellular NAD+ levels” value [12] was “increases NAD+”. For the same compound, the “intracellular NAD+ levels” value [13] was “increases NAD+”.
